Article PMC11280325, “Design, Synthesis, and Characterization of Novel Thiazolidine-2,4-Dione-Acridine Hybrids as Antitumor Agents” (Molecules, 2024)
Read-outs that look alike come from different tables or passages of the source.

Columns and labels:
[1] = system: Bj-5ta; experiment: MTT assay, BJ-5ta non-cancerous fibroblasts; type: cell-based, human; conditions: non-cancerous dermal fibroblasts, 48 h incubation
In short: (§1)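 Human MCF-10A breast epithelial and BJ-5ta dermal fibroblast cells seeded 24 h, then exposed to compounds at 5, 10, 20 and 50 µmol/L for 48 h at 37 °C. MTT with SDS solubilization, absorbance 540 nm. IC50 from nonlinear regression, ≥3 independent repeats.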

[2] = system: A549; experiment: MTT assay, A549; type: cell-based, human; conditions: lung adenocarcinoma, 48 h incubation
In short: (§2)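 MTT viability after 48 h exposure to compounds at final 5–50 µmol/L; formazan in 10% SDS read at 540 nm, IC50 fitted by nonlinear regression from at least three independent experiments.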

[3] = system: Hep G2; experiment: MTT assay, Hep G2; type: cell-based, human; conditions: hepatocellular carcinoma, 48 h incubation
In short: as §2

[4] = system: HeLa; experiment: MTT assay, HeLa; type: cell-based, human; conditions: cervical adenocarcinoma, 48 h incubation
In short: (§3)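 Cells (HeLa, HCT116 in RPMI 1640; A2058, PATU 8902 in DMEM; 10% FBS) were seeded at 5 × 10^3 to 10 × 10^3 per well, treated after 24 h with compound at 5, 10, 20 and 50 µmol/L for 48 h, then MTT-stained; formazan dissolved in 10% SDS, absorbance read at 540 nm.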

[5] = system: HCT116; experiment: MTT assay, HCT116; type: cell-based, human; conditions: colorectal adenocarcinoma, 48 h incubation
In short: as §3

[6] = system: PATU; experiment: MTT assay, PATU 8902; type: cell-based, human; conditions: pancreas adenocarcinoma, 48 h incubation
In short: as §3

[7] = system: A2058; experiment: MTT assay, A2058; type: cell-based; conditions: human melanoma, 48 h incubation
In short: as §3

[8] = molecular target: T1, bovine serum albumin (BSA) (Bos taurus, UniProt P02769); experiment: BSA fluorescence quenching (Stern–Volmer); type: binding; conditions: for Stern–Volmer quenching constant Ksv: BSA 1 μM, excitation 280 nm, PBS pH 7.4, 24 °C; for bimolecular quenching rate constant kq: kq = Ksv/τ0, τ0 = 10^−8 s, BSA, pH 7.4, 24 °C
T1 construct: purchased Sigma-Aldrich
T1 sequence (P02769 25-607): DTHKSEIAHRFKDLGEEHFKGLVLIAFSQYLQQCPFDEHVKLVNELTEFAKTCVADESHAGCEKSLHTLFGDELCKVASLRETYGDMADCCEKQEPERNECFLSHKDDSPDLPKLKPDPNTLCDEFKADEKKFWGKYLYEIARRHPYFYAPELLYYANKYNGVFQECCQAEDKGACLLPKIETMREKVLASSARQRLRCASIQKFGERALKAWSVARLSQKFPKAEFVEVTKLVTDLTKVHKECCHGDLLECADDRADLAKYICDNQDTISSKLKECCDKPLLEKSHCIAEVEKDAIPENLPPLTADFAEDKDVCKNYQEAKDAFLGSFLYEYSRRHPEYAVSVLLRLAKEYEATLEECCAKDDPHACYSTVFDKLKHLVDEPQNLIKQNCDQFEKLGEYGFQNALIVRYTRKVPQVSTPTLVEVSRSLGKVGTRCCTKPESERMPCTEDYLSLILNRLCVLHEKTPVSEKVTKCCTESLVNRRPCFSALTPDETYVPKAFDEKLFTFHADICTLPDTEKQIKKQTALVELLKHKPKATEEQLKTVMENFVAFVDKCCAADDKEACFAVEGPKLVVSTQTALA
Excerpt: BSA contains 582 amino acid residues, including tyrosine (Tyr), phenylalanine (Phe), and tryptophan (Trp). The tryptophan residues located at positions 134 and 212 being predominantly responsible for its intrinsic fluorescence due to their higher quantum yield than the other amino acids. When excitation occurs at 280 nm, both Trp and Tyr contribute to the fluorescence of the protein [44]. In this study, we investigated the interaction of newly synthesized derivatives (7e·2HCl, 12d·2HCl, 13c·HCl, and 13d), which have promising anticancer properties, with BSA. BSA (1 μM) was titrated with increasing concentration of acridine derivatives, and fluorescence spectra were recorded in the range of 300–500 nm (Figure 10). The fluorescence quenching for the quencher (Q) and protein interaction was analyzed using the Stern–Volmer equation [45, 46]: F0/F=1+Ksv [Q]=1+Kq τ0[Q] where F0 and F denote the fluorescence intensities in the absence and presence of the quencher Q, respectively. Ksv is the Stern–Volmer constant, kq is the bimolecular quenching rate constant (kq = Ksv/τ0), and τ0 is the lifetime of BSA in the absence of quencher, which is equal to 10^−8 s for the tryptophan fluorescence of proteins.
The fluorescence spectra were recorded using a Varian Cary Eclipse spectrofluorometer (Palo Alto, CA, USA) in a 10 mM phosphate-buffered saline solution (pH = 7.4) at 24 °C. The spectra were measured with an excitation wavelength of 280 nm using a slit width of 10 nm for both the excitation and emission beams over a range of 300–450 nm. Spectrofluorometric BSA titrations were performed with increasing concentrations of acridine derivatives.

[9] = system: MCF-10A; conditions: cisplatin reference, 48 h; cited from earlier work
[10] = system: Bj-5ta; conditions: cisplatin reference, 48 h; cited from earlier work
[11] = system: A549; conditions: cisplatin reference, 48 h; cited from earlier work
[12] = system: Hep G2; conditions: cisplatin reference, 48 h; cited from earlier work
[13] = system: HeLa; conditions: cisplatin reference, 48 h; cited from earlier work
[14] = system: HCT116; conditions: cisplatin reference, 48 h; cited from earlier work
[15] = system: PATU; conditions: cisplatin reference, 48 h; cited from earlier work
[16] = system: A2058; conditions: cisplatin reference, 48 h; cited from earlier work
[17] = system: MCF-10A; experiment: MTT assay, MCF-10A non-cancerous cells; type: cell-based, human; conditions: non-cancerous epithelial breast cells, 48 h incubation
In short: as §1

[18] = system: A2780; experiment: MTT assay, A2780; type: cell-based, human; conditions: ovarian adenocarcinoma, 48 h incubation
In short: as §2

| SMILES | IC50 [2] [µM] | IC50 [4] [µM] | IC50 [5] [µM] | Stern–Volmer quenching constant Ksv [8] | bimolecular quenching rate constant kq [8] | IC50 ([2]; Homo sapiens, A549, 48 h) [µM] | IC50 ([18]; Homo sapiens, A2780, 48 h) [µM] | IC50 ([4]; Homo sapiens, HeLa, 48 h) [µM] | melting point | IC50 [1] [µM] | IC50 [3] [µM] | IC50 [6] [µM] | IC50 [7] [µM] | IC50 ([17]; Homo sapiens, MCF-10A, 48 h) [µM] | IC50 ([1]; Homo sapiens, Fibroblast, 48 h) [µM] | IC50 ([3]; Homo sapiens, HepG2, 48 h) [µM] | IC50 ([6]; Homo sapiens, PaTu 8902, 48 h) [µM] | IC50 ([7]; Homo sapiens, A2058, 48 h) [µM] | further results |
| --- | --- | --- | --- | --- | --- | --- | --- | --- | --- | --- | --- | --- | --- | --- | --- | --- | --- | --- | --- |
| COc1cc(/C=C2\SC(=O)N(Cc3c4ccccc4nc4ccccc34)C2=O)ccc1OCC(=O)Nc1ccc([N+](=O)[O-])cc1.Cl.Cl [12d·2HCl, 2-(4-{[(5Z)-3-[(Acridin-9-yl)methyl]-2,4-dioxo-1,3-thiazolidin-5-ylidene]methyl}-2-methoxyphenoxy)-N-(4-nitrophenyl)acetamide dihydrochloride] | > 50 | 19.3 ± 5.5 | 17.6 ± 4.5 | 10.47 × 10^4 [M^−1] | 10.47 × 10^12 [M^−1·s^−1] |  |  |  |  | > 50 | > 50 | 30.8 ± 6.2 | > 50 |  |  |  |  |  |  |
| COc1cc(/C=C2\SC(=O)N(Cc3cccc4cc5ccccc5nc34)C2=O)ccc1OCC(=O)Nc1cc(OC)c(OC)c(OC)c1.Cl [13c·HCl, 2-(4-{[(5Z)-3-[(Acridin-4-yl)methyl]-2,4-dioxo-1,3-thiazolidin-5-ylidene]methyl}-2-methoxyphenoxy)-N-(3,4,5-trimethoxyphenyl)acetamide hydrochloride] | 14.6 ± 3.3 | 14.3 ± 6.4 | > 50 | 10.58 × 10^4 [M^−1] | 10.58 × 10^12 [M^−1·s^−1] |  |  |  |  | > 50 | 23.4 ± 3.4 | > 50 | > 50 |  |  |  |  |  |  |
| N.N.[Cl][Pt][Cl] [Cisplatin] |  |  |  |  |  |  |  |  |  |  |  |  |  |  |  |  |  |  | IC50 [9]: 25.9 ± 2.1 µM; IC50 [10]: 31 ± 0.7 µM; IC50 [11]: 17.3 ± 2.2 µM; IC50 [12]: 14 ± 2.8 µM; IC50 [13]: 30.4 ± 1.4 µM; IC50 [14]: 14.5 ± 2.5 µM; IC50 [15]: 20.7 ± 3.1 µM; IC50 [16]: 18.8 ± 5.5 µM |
| Cl.Cl.O=C(COc1ccc(/C=C2\SC(=O)N(Cc3c4ccccc4nc4ccccc34)C2=O)cc1)Nc1ccccc1C(F)(F)F [Compound 7e·2HCl, 2-(4-{[(5Z)-3-[(Acridin-9-yl)methyl]-2,4-dioxo-1,3-thiazolidin-5-ylidene]methyl}phenoxy)-N-[2-(trifluoromethyl)phenyl]acetamide dihydrochloride] | 34.3 ± 5.7 | 20.5 ± 3.8 | 8.9 ± 3.1 | 10.74 × 10^4 [M^−1] | 10.74 × 10^12 [M^−1·s^−1] |  |  |  |  | > 50 | > 50 | 11 ± 2.2 | > 50 |  |  |  |  |  | IC50 [17]: > 50 µM; IC50 [18]: > 50 µM |

More lines, main results first:

| IC50 [2] [µM] | IC50 [4] [µM] | IC50 [5] [µM] | Stern–Volmer quenching constant Ksv [8] | bimolecular quenching rate constant kq [8] | IC50 ([2]; Homo sapiens, A549, 48 h) [µM] | IC50 ([18]; Homo sapiens, A2780, 48 h) [µM] | IC50 ([4]; Homo sapiens, HeLa, 48 h) [µM] | melting point | SMILES | IC50 [1] [µM] | IC50 [3] [µM] | IC50 [6] [µM] | IC50 [7] [µM] | IC50 ([17]; Homo sapiens, MCF-10A, 48 h) [µM] | IC50 ([1]; Homo sapiens, Fibroblast, 48 h) [µM] | IC50 ([3]; Homo sapiens, HepG2, 48 h) [µM] | IC50 ([6]; Homo sapiens, PaTu 8902, 48 h) [µM] | IC50 ([7]; Homo sapiens, A2058, 48 h) [µM] | further results |
| --- | --- | --- | --- | --- | --- | --- | --- | --- | --- | --- | --- | --- | --- | --- | --- | --- | --- | --- | --- |
|  |  |  |  |  | 38.9 ± 2.1 | > 50 | 25.7 ± 3.45 | 222 to 224 °C | COc1cc(NC(=O)COc2ccc(/C=C3\SC(=O)N(Cc4cccc5cc6ccccc6nc45)C3=O)cc2OC)cc(OC)c1 [Compound 13b, 2-(4-{[(5Z)-3-[(Acridin-4-yl)methyl]-2,4-dioxo-1,3-thiazolidin-5-ylidene]methyl}-2-methoxyphenoxy)-N-(3,5-dimethoxyphenyl)acetamide] |  |  |  |  | 43.6 ± 3.3 | 41.7 ± 0.8 | > 50 | > 50 | 34.4 ± 2.45 | IC50 ([5]; Homo sapiens, HCT-116, 48 h): 44.7 ± 4.1 µM |
| > 50 | 44.2 ± 4.1 | 23.1 ± 5.7 |  |  |  | > 50 |  | 228 to 230 °C (dec.) | COc1cc(/C=C2\SC(=O)N(Cc3cccc4cc5ccccc5nc34)C2=O)ccc1OCC(=O)Nc1cc(OC)c(OC)c(OC)c1 [Compound 13c, 2-(4-{[(5Z)-3-[(Acridin-4-yl)methyl]-2,4-dioxo-1,3-thiazolidin-5-ylidene]methyl}-2-methoxyphenoxy)-N-(3,4,5-trimethoxyphenyl)acetamide] |  | > 50 |  |  | > 50 | > 50 |  | > 50 | 42.5 ± 0.25 |  |
|  |  | 4.9 ± 2.9 | 9.59 × 10^4 [M^−1] | 9.59 × 10^12 [M^−1·s^−1] | 46.9 ± 3.1 | > 50 | 36.2 ± 5.23 | 254 to 257 °C (dec.) | COc1cc(/C=C2\SC(=O)N(Cc3cccc4cc5ccccc5nc34)C2=O)ccc1OCC(=O)Nc1ccc([N+](=O)[O-])cc1 [Compound 13d, 2-(4-{[(5Z)-3-[(Acridin-4-yl)methyl]-2,4-dioxo-1,3-thiazolidin-5-ylidene]methyl}-2-methoxyphenoxy)-N-(4-nitrophenyl)acetamide] |  |  |  |  | > 50 | 38.5 ± 4.5 | > 50 | > 50 | 38.1 ± 1.65 |  |
|  |  |  |  |  | > 50 | > 50 | 26.7 ± 3.8 | 217 to 218 °C | COc1cc(/C=C2\SC(=O)N(Cc3cccc4cc5ccccc5nc34)C2=O)ccc1OCC(=O)Nc1ccccc1C(F)(F)F [Compound 13e, 2-(4-{[(5Z)-3-[(Acridin-4-yl)methyl]-2,4-dioxo-1,3-thiazolidin-5-ylidene]methyl}-2-methoxyphenoxy)-N-[2-(trifluoromethyl)phenyl]acetamide] |  |  |  |  | 14.9 ± 0.16 | > 50 | > 50 | > 50 | 35.2 ± 2.87 | IC50 ([5]; Homo sapiens, HCT-116, 48 h): 9.9 ± 1.7 µM |
|  |  | 36.3 ± 4.6 |  |  | > 50 | > 50 | 21.8 ± 6.4 | 203 to 205 °C | COc1cc(/C=C2\SC(=O)N(Cc3cccc4cc5ccccc5nc34)C2=O)ccc1OCC(=O)Nc1cccc(C(F)(F)F)c1 [Compound 13f, 2-(4-{[(5Z)-3-[(Acridin-4-yl)methyl]-2,4-dioxo-1,3-thiazolidin-5-ylidene]methyl}-2-methoxyphenoxy)-N-[3-(trifluoromethyl)phenyl]acetamide] |  |  |  |  | 28.9 ± 5.6 | > 50 | > 50 | > 50 | 31.9 ± 4.1 |  |
|  |  | 24.9 ± 3.5 |  |  | > 50 | > 50 | 17.7 ± 2.9 | 249 to 250 °C | COc1cc(/C=C2\SC(=O)N(Cc3cccc4cc5ccccc5nc34)C2=O)ccc1OCC(=O)Nc1cc(C(F)(F)F)cc(C(F)(F)F)c1 [Compound 13g, 2-(4-{[(5Z)-3-[(Acridin-4-yl)methyl]-2,4-dioxo-1,3-thiazolidin-5-ylidene]methyl}-2-methoxyphenoxy)-N-[3,5-bis(trifluoromethyl)phenyl]acetamide] |  |  |  |  | > 50 | > 50 | > 50 | > 50 | > 50 |  |
